Measured values reported in the NIST ThermoML archive (doi:10.1016/j.fluid.2011.02.015).

Conditions: Liquid, hot wire

FC(F)(F)CC(F)(F)F [1,1,1,3,3,3-hexafluoropropane]
Conditions	thermal conductivity [W/m/K]
252.57 K, 10000 kPa	0.0912
252.8 K, 5000 kPa	0.0891
252.87 K, 100 kPa	0.0873
252.92 K, 10000 kPa	0.0914
253.16 K, 5000 kPa	0.0887
253.24 K, 20000 kPa	0.0955
253.38 K, 100 kPa	0.0872
253.41 K, 30000 kPa	0.0972
253.47 K, 20000 kPa	0.0949
253.51 K, 20000 kPa	0.0952
253.6 K, 10000 kPa	0.0911
253.65 K, 5000 kPa	0.0891
253.66 K, 100 kPa	0.0872
253.86 K, 30000 kPa	0.0971
255.05 K, 30000 kPa	0.0973
272.91 K, 30000 kPa	0.0926
273.36 K, 10000 kPa	0.0847
273.45 K, 20000 kPa	0.0896
273.49 K, 1000 kPa	0.0814
273.66 K, 10000 kPa	0.0851
273.82 K, 5000 kPa	0.0833
273.85 K, 1000 kPa	0.081
273.86 K, 1000 kPa	0.0812
273.95 K, 30000 kPa	0.0929
274.06 K, 20000 kPa	0.0895
274.16 K, 5000 kPa	0.0832
274.27 K, 10000 kPa	0.0855
274.33 K, 30000 kPa	0.0927
274.57 K, 20000 kPa	0.0892
274.63 K, 5000 kPa	0.0835
293.15 K, 10000 kPa	0.0802
293.22 K, 1000 kPa	0.0762
293.42 K, 30000 kPa	0.0894
293.49 K, 1000 kPa	0.0767
293.61 K, 5000 kPa	0.0782
293.65 K, 10000 kPa	0.0805
293.76 K, 5000 kPa	0.0781
293.76 K, 30000 kPa	0.0891
293.85 K, 10000 kPa	0.0802
293.95 K, 5000 kPa	0.0783
294.47 K, 1000 kPa	0.0764
294.54 K, 30000 kPa	0.0893
312.5 K, 5000 kPa	0.0705
312.59 K, 1000 kPa	0.0682
312.89 K, 5000 kPa	0.0709
313.01 K, 1000 kPa	0.0683
313.28 K, 5000 kPa	0.0706
313.39 K, 1000 kPa	0.068
313.53 K, 20000 kPa	0.0809
313.55 K, 10000 kPa	0.0757
313.85 K, 10000 kPa	0.0761
313.86 K, 30000 kPa	0.0853
314.04 K, 10000 kPa	0.0758
314.06 K, 30000 kPa	0.085
314.2 K, 20000 kPa	0.0809
315.13 K, 20000 kPa	0.0815
315.13 K, 30000 kPa	0.0852
332.48 K, 10000 kPa	0.0699
332.49 K, 5000 kPa	0.0654
332.51 K, 1000 kPa	0.0623
332.72 K, 30000 kPa	0.0805
332.79 K, 20000 kPa	0.0756
332.84 K, 30000 kPa	0.0813
332.85 K, 10000 kPa	0.0695
332.87 K, 1000 kPa	0.0624
332.89 K, 5000 kPa	0.0651
333.2 K, 10000 kPa	0.0695
333.24 K, 1000 kPa	0.0623
333.26 K, 5000 kPa	0.0648
333.48 K, 30000 kPa	0.0802
333.59 K, 20000 kPa	0.0755
334.42 K, 20000 kPa	0.0761
353.02 K, 30000 kPa	0.0749
353.17 K, 10000 kPa	0.0636
353.29 K, 20000 kPa	0.0705
353.35 K, 2000 kPa	0.0565
353.35 K, 5000 kPa	0.0593
353.57 K, 30000 kPa	0.0744
353.68 K, 2000 kPa	0.0564
353.74 K, 5000 kPa	0.0592
353.74 K, 20000 kPa	0.0701
353.82 K, 10000 kPa	0.0635
353.95 K, 30000 kPa	0.0741
354.09 K, 20000 kPa	0.0699
354.12 K, 2000 kPa	0.056
354.24 K, 10000 kPa	0.0633
354.4 K, 5000 kPa	0.0594
373.08 K, 10000 kPa	0.0597
373.15 K, 30000 kPa	0.0726
373.22 K, 5000 kPa	0.0554
373.4 K, 20000 kPa	0.0672
373.46 K, 3000 kPa	0.0525
373.56 K, 10000 kPa	0.0596
373.72 K, 5000 kPa	0.0559
373.8 K, 30000 kPa	0.0727
373.84 K, 3000 kPa	0.0524
373.87 K, 20000 kPa	0.0677
374.1 K, 10000 kPa	0.0601
374.21 K, 30000 kPa	0.0724
374.24 K, 5000 kPa	0.0557
374.26 K, 3000 kPa	0.0526
374.57 K, 20000 kPa	0.0672
